These are literature values, as cited in patent US20070293552A1, “ANTIHYPERTENSIVE THERAPY METHOD” (priority 2006, published 2007).

For the data set, the target named is T1, ETA (Homo sapiens, UniProt P25101).
T1 sequence (P25101 21-427): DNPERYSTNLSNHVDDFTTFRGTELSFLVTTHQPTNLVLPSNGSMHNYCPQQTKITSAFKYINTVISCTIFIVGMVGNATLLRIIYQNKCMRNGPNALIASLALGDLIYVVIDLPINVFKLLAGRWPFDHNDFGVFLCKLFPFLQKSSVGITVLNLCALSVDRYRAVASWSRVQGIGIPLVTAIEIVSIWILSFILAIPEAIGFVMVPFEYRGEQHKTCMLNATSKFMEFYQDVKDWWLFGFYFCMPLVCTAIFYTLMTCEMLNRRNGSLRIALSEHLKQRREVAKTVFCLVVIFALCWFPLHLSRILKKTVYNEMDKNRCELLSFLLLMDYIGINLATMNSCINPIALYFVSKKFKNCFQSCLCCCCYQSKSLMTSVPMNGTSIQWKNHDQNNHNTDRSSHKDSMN
As to conditions: selectivity for ETA over ETB; reported by Wu et al. (2004) J. Med. Chem. 47, 1969-1986.

On to `CC(=O)c1cc(C)cc(C)c1NC(=O)c1sccc1S(=O)(=O)Nc1onc(C)c1C` [TBC3711, N-(2-acetyl-4,6-dimethylphenyl)-3-(3,4-dimethylisoxazol-5-ylsulfamoyl)-thiophene-2-carboxamide], for which the ETA/ETB selectivity factor is reported as 441×10^3.
